Measurements: ChEMBL document CHEMBL1255527, “Structure-activity relationships of tulipalines, tuliposides, and related compounds as inhibitors of MurA” (Bioorg Med Chem Lett, 2010)
Converted amounts (≈) assume the structure as drawn. The source made the active and inactive calls. The calls are words filed in the database; no cut-off is given here.

Tests used:
[1] = Inhibition of Escherichia coli MurA at 25 uM; design: species or system Escherichia coli BL21
Escherichia coli [2] = test: Antimicrobial activity against Escherichia coli BL21 assessed as growth inhibition at 200 uM after 24 hrs; format: functional; conditions: for inhibition at 200 µM: BL21, BL21, 24 h
[3] = tested on: Escherichia coli BL21 [C115D]; test: Inhibition of Escherichia coli MurA C115D mutant at 25 uM
Escherichia coli BL21 = test: Inhibition of Escherichia coli MurA; design: concentration or dose not given beside the values
[4] = Electrophilicity, glutathione reactivity of the compound assessed as half life; format: physicochemical; conditions: glutathione (reaction with glutathione)
Escherichia coli [5] = test: Antimicrobial activity against Escherichia coli BL21 assessed as growth inhibition at 200 uM in presence of minimum medium; format: functional
Escherichia coli [6] = test: Antimicrobial activity against Escherichia coli BL21 expressing MurA C115D mutant assessed as growth inhibition at 200 uM in presence of kanamycin; format: functional
Escherichia coli [7] = test: Antimicrobial activity against Escherichia coli BL21 after 24 hrs; format: functional; conditions: BL21, 24 h
Escherichia coli [8] = test: Antimicrobial activity against Escherichia coli BL21 assessed as growth inhibition at 200 uM in presence of IPTG; format: functional
Escherichia coli [9] = test: Antimicrobial activity against Escherichia coli BL21 expressing MurA C115D mutant assessed as growth inhibition at 200 uM after 20 hrs in presence of kanamycin and 0.5 mM IPTG; format: functional
Escherichia coli [10] = test: Antimicrobial activity against Escherichia coli BL21 expressing MurA C115D mutant assessed as growth inhibition at 200 uM after 20 hrs in presence of kanamycin and 1 mM IPTG; format: functional

Structure (SMILES) | IC50 [1] [µM] | inhibition at 200 µM (Escherichia coli [2]) [%] | inhibition [3] | inhibition (Escherichia coli BL21; concentration not given here) [%] | inhibition (Escherichia coli [2]) | half-life [4] [h] | inhibition (Escherichia coli [5]) | inhibition (Escherichia coli BL21) | Activity (Escherichia coli [6]) | inhibition at 200 µM (Escherichia coli [5]) [%] | MBC (Escherichia coli [7]) [µM] | MIC (Escherichia coli [7]) [µM] | Activity (Escherichia coli [8]) | Activity (Escherichia coli [9]) | Activity (Escherichia coli [10])
C=C(C(=O)OC)C(O)C(O)CO (centres undefined) | 6.3 | 17 | 10% | 77 | – | – | – | – | – | – | – | – | – | – | –
C=C(CO)C(=O)O | – | – | inactive | – | inactive | > 60 | inactive | inactive | – | – | – | – | – | – | –
C=C(C(=O)O)C(O)CO (centres undefined) | 8.6 | 18 | inactive | 87 | – | < 7 | – | – | inactive | 100 | 25 (≈ 3.3 µg/mL) | 1.56 (≈ 0.206 µg/mL) | inactive | inactive | inactive
C=C(C(=O)O)C(O)C(O)CO (centres undefined) | – | – | inactive | – | inactive | – | inactive | inactive | – | – | – | – | – | – | –
C[C@@H]1O[C@@H]1P(=O)(O)O [FOSFOMYCIN] | 0.1 | 100 | inactive | 99 | – | > 60 | – | – | inactive | 96 | 200 (≈ 27.6 µg/mL) | 50 (≈ 6.9 µg/mL) | inactive | Active | Active
C=C1C(=O)OC(CO)C1O (centres undefined) | 6.6 | 26 | inactive | 74 | – | – | – | – | – | 102 | – | – | – | – | –
C=C1CCOC1=O [TULIPALINE A] | – | 5 | inactive | – | – | – | inactive | inactive | – | – | – | – | – | – | –
C=C(CCO)C(=O)O | – | – | inactive | – | – | – | inactive | inactive | – | – | – | – | – | – | –
C=C(CP(=O)(O)O)C(=O)OC | – | – | inactive | – | inactive | – | inactive | inactive | – | – | – | – | – | – | –
C=C(C(=O)OC)C(OC(C)=O)C(O)CO (centres undefined) | 4.5 | 30 | 10% | 79 | – | – | – | – | – | 98 | – | – | – | – | –
C=C1C(=O)OC(CBr)C1O (centres undefined) | 10.4 | 84 | 18% | 85 | – | – | – | – | – | 103 | – | – | – | – | –
C=C(CCO)C(=O)O[C@@H]1O[C@H](CO)[C@@H](O)[C@H](O)[C@H]1O | – | – | inactive | 11 | inactive | – | inactive | – | – | – | – | – | – | – | –
C=C(C(=O)OC)C(O)C1COC(C)(C)O1 (centres undefined) | – | – | inactive | – | inactive | – | inactive | inactive | – | – | – | – | – | – | –
C=C(CP(=O)(O)O)C(=O)O | – | – | inactive | 13 | inactive | – | inactive | – | – | – | – | – | – | – | –
C=C1CC(CO)OC1=O (centres undefined) | – | – | inactive | 17 | inactive | – | – | – | – | 47 | – | – | – | – | –
C=C(C(=O)O[C@@H]1O[C@H](CO)[C@@H](O)[C@H](O)[C@H]1O)[C@@H](O)CO [1-TULIPOSIDE B] | 5 | 64 | inactive | 84 | – | – | – | – | – | 97 | 50 (≈ 14.7 µg/mL) | 6.25 (≈ 1.84 µg/mL) | – | – | –
C=C1CC(COC(C)=O)OC1=O (centres undefined) | – | – | inactive | – | inactive | – | – | inactive | – | 74 | – | – | – | – | –
C=C(CO)C(=O)OC | – | – | inactive | – | inactive | – | inactive | inactive | – | – | – | – | – | – | –
C=C(CBr)C(=O)OC [METHYL BROMOMETHYL ACRYLATE] | – | 20 | inactive | 55 | – | – | – | – | – | 101 | – | – | – | – | –
C=C1C(=O)OCC1O (racemic) [(+/-)-TULIPALINE B] | 2 | 62 | inactive | 97 | – | – | – | – | inactive | 93 | 200 (≈ 22.8 µg/mL) | 12.5 (≈ 1.43 µg/mL) | inactive | inactive | inactive
C=C1C(=O)O[C@@H]2/C=C(\CO)CC/C=C(\C)C[C@H](OC(=O)C(=C)[C@H](O)CO)[C@@H]12 [CNICIN] | 16.7 | 19 | inactive | 97 | – | – | – | – | inactive | 92 | 200 (≈ 75.7 µg/mL) | 25 (≈ 9.46 µg/mL) | inactive | inactive | inactive
C=C(CP(=O)(OCC)OCC)C(=O)OC | – | – | inactive | 20 | inactive | – | inactive | – | – | – | – | – | – | – | –
